Results on 40 compounds are retold here after patent publication US12465603B2, “Phthalazinone based modulators for the treatment of disease” (Soley Therapeutics, Inc., priority 2022, dated 2025).

pIC50: −log10 of the molar value.

In assay [1] the test system is PA1 (ECACC, 90013101) cells. As to the kind of experiment: Cell viability assay (Cell Titre Glo, 72 hours) in PA1 cells. It is filed as cell-based. The settings on record: Homo sapiens, PA-1. In short, it runs like this:
(§1)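 10-point dose response, top final concentration 30 μM, 1 in 3 dilutions; 5000 cells per well added directly to compound. Incubated 72 hours at 37° C, 5% CO2, then viability read by Cell Titre Glo luminescence and IC50 curves fitted.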

Assay [2] concerns A2058 (ATCC, CRL-11147) cells. As to the kind of experiment: Cell viability assay (Cell Titre Glo, 72 hours) in A2058 cells. It is filed as cell-based. The settings on record: Homo sapiens. In short, it runs like this: as §1

Broadly, the pIC50 is the negative decadic logarithm of the IC50, by convention in mol/L. A high value points to a low IC50. For the compound `CCn1nc(C(=O)N2CCN(c3ccccc3C3CC3)CC2)c2ccccc2c1=O` [Compound 103], the pIC50 in assay [1] and in assay [2] was not below 6.00 throughout.
For `CCn1nc(C(=O)N2CCN(c3ncc(F)cc3C(F)(F)F)CC2)c2ccccc2c1=O` [Compound 140], the pIC50 in assay [1] and in assay [2] was 5.00 to 6.00 each time.
With `CCn1nc(C(=O)N2CCN(c3ccccc3OC)CC2)c2ccccc2c1=O` [Compound 101], the pIC50 in assay [1] and in assay [2] was not below 6.00 each time.
With `Cc1cncc(N2CCN(C(=O)c3nn(C)c(=O)c4ccccc34)CC2)c1` [Compound 73], the pIC50 in assay [1] and in assay [2] was 5.00 to 6.00 in each case.
For the compound `CCn1nc(C(=O)N2CCN(c3cccc(OC)c3Br)CC2)c2ccccc2c1=O` [Compound 153], the pIC50 in assay [1] and in assay [2] was 5.00 to 6.00 each time.
As for `COc1ncccc1N1CCN(C(=O)c2nn(C)c(=O)c3ccccc23)CC1` [Compound 20], the pIC50 in assay [1] and in assay [2] was 5.00 to 6.00 each time.
Consider `COc1cc(F)cnc1N1CCN(C(=O)c2nn(C)c(=O)c3ccccc23)CC1` [Compound 13], for which the pIC50 in assay [1] is 5.00 to 6.00; in assay [2] it was 4.70 to 5.00.
Consider `CCn1nc(C(=O)N2CCN(c3cccc(C4CC4)c3)CC2)c2ccccc2c1=O` [Compound 116, 4-(4-(3-cyclopropylphenyl)piperazine-1-carbonyl)-2-ethylphthalazin-1(2H)-one], for which the pIC50 in assay [1] and in assay [2] was not below 6.00 in each case.
Regarding `CCn1nc(C(=O)N2CCN(c3ccccc3Cl)CC2)c2ccccc2c1=O` [Compound 105], the pIC50 in assay [1] and in assay [2] was not below 6.00 in each case.
Turning to `CCn1nc(C(=O)N2CCN(c3cc(OC)ncc3F)CC2)c2ccccc2c1=O` [Compound 152], the pIC50 in assay [1] and in assay [2] was less than 4.70 in each case.
In the case of `Cn1nc(C(=O)N2CCN(c3cncc4c3OCC4)CC2)c2ccccc2c1=O` [Compound 190], the negative-log IC50 (pIC50) in assay [1] and in assay [2] was not below 6.00 throughout.
Turning to `COc1ccc(N2CCN(C(=O)c3nn(C)c(=O)c4ccccc34)CC2)cc1` [Compound 29], the pIC50 in assay [1] and in assay [2] was less than 4.70 in each case.
For `COc1cc(Cl)ccc1N1CCN(C(=O)c2nn(C)c(=O)c3ccccc23)CC1` [Compound 57], the pIC50 in assay [1] was not below 6.00; in assay [2], 5.00 to 6.00.
For the compound `CCn1nc(C(=O)N2CCN(c3ncc(C#N)cc3C)CC2)c2ccccc2c1=O` [Compound 91], the pIC50 in assay [1] and in assay [2] was less than 4.70 in each case.
Regarding `Cn1nc(C(=O)N2CCN(c3cc(C#N)ccc3C3CC3)CC2)c2ccccc2c1=O` [Compound 62], the pIC50 in assay [1] and in assay [2] was not below 6.00 in each case.
With `CCn1nc(C(=O)N2CCN(c3cccc(F)n3)CC2)c2ccccc2c1=O` [Compound 82], the pIC50 was 4.70 to 5.00 in assay [1] and less than 4.70 in assay [2].
For the compound `Cn1nc(C(=O)N2CCN(c3cnccc3C3CC3)CC2)c2cc(F)ccc2c1=O` [Compound 232, 4-(4-(4-cyclopropylpyridin-3-yl)piperazine-1-carbonyl)-6-fluoro-2-methylphthalazin-1(2H)-one], the pIC50 in assay [1] and in assay [2] was not below 6.00 in each case.
Regarding `COc1ccccc1N1CCN(C(=O)c2nn(C)c(=O)c3ncccc23)CC1` [Compound 183], the pIC50 in assay [1] was 4.70 to 5.00; in assay [2], less than 4.70.
As to `CCn1nc(C(=O)N2CCN(c3ccccc3F)CC2)c2ccccc2c1=O` [Compound 100], the pIC50 in assay [1] was not below 6.00; in assay [2] it was 5.00 to 6.00.
With `COc1cc(N2CCN(C(=O)c3nn(C)c(=O)c4ccccc34)CC2)cnn1` [Compound 12], the pIC50 in assay [1] and in assay [2] was 4.70 to 5.00 each time.
Consider `CCn1nc(C(=O)N2CCN(c3cc(F)c(F)cc3OC)CC2)c2ccccc2c1=O` [Compound 144], for which the pIC50 in assay [1] and in assay [2] was not below 6.00 in each case.
Turning to `CCn1nc(C(=O)N2CCN(c3ccnc4c3OCC4)CC2)c2ccccc2c1=O` [Compound 187], the pIC50 in assay [1] and in assay [2] was not below 6.00 each time.
For the compound `Cn1nc(C(=O)N2CCN(c3ccccc3C3CC3)CC2)c2cnccc2c1=O` [Compound 177], the pIC50 in assay [1] and in assay [2] was not below 6.00 each time.
As to `Cc1cncc(N2CCN(C(=O)c3nn(C)c(=O)c4ccc(F)cc34)CC2)c1` [Compound 162], the pIC50 is not below 6.00 in assay [1] and 5.00 to 6.00 in assay [2].
Take `CCn1nc(C(=O)N2CCN(c3cnccc3OC)CC2)c2cnccc2c1=O` [Compound 243]: the pIC50 in assay [1] was not below 6.00; in assay [2] it was 5.00 to 6.00.
Consider `COc1cccc(N2CCN(C(=O)c3nn(C)c(=O)c4ccccc34)CC2)c1` [Compound 50], for which the pIC50 in assay [1] and in assay [2] was not below 6.00 throughout.
For `CCn1nc(C(=O)N2CCN(c3ccccc3OCC(F)(F)F)CC2)c2ccccc2c1=O` [Compound 147], the pIC50 in assay [1] and in assay [2] was 5.00 to 6.00 each time.
As for `CCn1nc(C(=O)N2CCN(c3ccccc3C#N)CC2)c2ccccc2c1=O` [Compound 133], the pIC50 in assay [1] was 4.70 to 5.00; in assay [2] it was less than 4.70.
Consider `COc1cc(F)cc(N2CCN(C(=O)c3nn(C)c(=O)c4ncccc34)CC2)c1` [Compound 184, 5-(4-(3-fluoro-5-methoxyphenyl)piperazine-1-carbonyl)-7-methylpyrido[2,3-d]pyridazin-8(7H)-one], for which the pIC50 was 5.00 to 6.00 in assay [1] and 4.70 to 5.00 in assay [2].
On the same counts, the results for `CCn1nc(C(=O)N2CCN(c3ncccc3C(F)(F)F)CC2)c2ccccc2c1=O` [Compound 136] are 5.00 to 6.00 and 4.70 to 5.00.
For the compound `Cc1cc(N2CCN(C(=O)c3nn(C)c(=O)c4ccccc34)CC2)ccn1` [Compound 74], the pIC50 in assay [1] and in assay [2] was less than 4.70 in each case.
As for `CCn1nc(C(=O)N2CCN(c3ccc(Cl)cc3OC)CC2)c2ccccc2c1=O` [Compound 117], the pIC50 in assay [1] and in assay [2] was not below 6.00 each time.
Consider `COc1ccccc1N1CCN(C(=O)c2nn(C)c(=O)c3ccncc23)CC1` [Compound 175], for which the pIC50 in assay [1] is not below 6.00; in assay [2], 5.00 to 6.00.
As for `CCn1nc(C(=O)N2CCN(c3ccc(F)c4c3CCO4)CC2)c2ccccc2c1=O` [Compound 188], the pIC50 in assay [1] and in assay [2] was not below 6.00 throughout.
As to `COc1cc(C)cc(N2CCN(C(=O)c3nn(C)c(=O)c4ccncc34)CC2)c1` [Compound 217], the pIC50 in assay [1] and in assay [2] was not below 6.00 throughout.
Take `CCn1nc(C(=O)N2CCN(c3cc(OC)cnn3)CC2)c2ccccc2c1=O` [Compound 112]: the pIC50 in assay [1] and in assay [2] was less than 4.70 in each case.
Turning to `CCn1nc(C(=O)N2CCN(c3nccnc3OC)CC2)c2ccccc2c1=O` [Compound 99], the pIC50 in assay [1] and in assay [2] was 5.00 to 6.00 in each case.
With `Cn1nc(C(=O)N2CCN(c3ccccc3)CC2)c2cc(F)ccc2c1=O` [Compound 156, 6-fluoro-2-methyl-4-(4-phenylpiperazine-1-carbonyl)phthalazin-1-one], the pIC50 in assay [1] and in assay [2] was 5.00 to 6.00 each time.
As for `Cn1nc(C(=O)N2CCC(c3ccccc3)CC2)c2ccccc2c1=O` [Compound 2], the figures for the pIC50 in assay [1] and in assay [2] were 5.00 to 6.00 and 4.70 to 5.00, respectively.
On to `Cn1nc(C(=O)N2CCN(c3cc(C#N)ccc3C(F)F)CC2)c2ccccc2c1=O` [Compound 200], for which the pIC50 in assay [1] and in assay [2] was 5.00 to 6.00 throughout.
